Results from ChEMBL document CHEMBL5131502, “Improving the treatment of Parkinson's disease: Structure-based development of novel 5-HT2A receptor antagonists/inverse agonists” (Eur J Med Chem, 2022).
In brackets after ≈: the same amount, converted by molar mass.

Key:
[1] = Lipophilicity, logD of the compound at pH 7.4; format: physicochemical; conditions: buffer
[2] = Dissociation constant, pKa of the compound; format: physicochemical
[3] = Genotoxicity in Salmonella typhimurium TA100 in absence of rat liver S9 fraction by Ames test; format: toxicity; conditions: salmonella enterica subsp. enterica serovar typhimurium
[4] = Genotoxicity in Salmonella typhimurium TA1535 in presence of rat liver S9 fraction by Ames test; format: toxicity, subcellular; conditions: salmonella enterica subsp. enterica serovar typhimurium
[5] = Plasma protein binding in rat at 10 uM; format: ADME, cell-free; conditions: read-out: PPB (converted)
[6] = Plasma protein binding in human at 10 uM; format: ADME, cell-free; conditions: read-out: PPB (converted)
[7] = Genotoxicity in Salmonella typhimurium TA102 in absence of rat liver S9 fraction by Ames test; format: toxicity; conditions: salmonella enterica subsp. enterica serovar typhimurium
[8] = molecular target: Cytochrome P450 2C9 (Homo sapiens, UniProt P11712); assay: Inhibition of CYP2C9 (unknown origin); format: ADME
[9] = Toxicity in Sprague-Dawley rat assessed as animal death at 20 to 60 mg/kg, po administered daily via gavage measured for 7 days; format: organism-based; conditions: in vivo, 168 h, dose 20-60 mg/kg, time 7 day
[10] = Drug distribution in Sprague-Dawley rat brain at 6 micromol/kg administered via gavage measured after 6 hrs by LC-MS/MS analysis; format: ADME, tissue-based; conditions: in vivo, po, dose 6 µmol/kg
[11] = Genotoxicity in Salmonella typhimurium TA97 in absence of rat liver S9 fraction by Ames test; format: toxicity; conditions: salmonella enterica subsp. enterica serovar typhimurium
[12] = Metabolic stability in human liver microsomes assessed as half life at 100 uM preincubated for 10 mins followed by NADPH addition by LC/MS analysis; format: ADME, Microsome
[13] = Toxicity in Sprague-Dawley rat assessed as apparent adverse effect at 20 to 60 mg/kg, po administered daily via gavage measured for 7 days; format: organism-based; conditions: in vivo, 168 h, dose 20-60 mg/kg, time 7 day
[14] = molecular target: Cytochrome P450 2C19 (Homo sapiens, UniProt P33261); assay: Inhibition of CYP2C19 (unknown origin); format: ADME
[15] = molecular target: 5-hydroxytryptamine receptor 2B (Homo sapiens, UniProt P41595); assay: Displacement of [3H]-LSD from human 5-HT2B receptor at 25 uM incubated for 1 hr by microbeta2 beta-counter analysis
[16] = molecular target: T1, 5-hydroxytryptamine receptor 2C (Homo sapiens, UniProt P28335); assay: Displacement of [3H]- Mesulergine from human 5-HT2C receptor at 300 nM incubated for 1 hr by microbeta2 beta-counter analysis
T1 sequence (P28335 whole entry): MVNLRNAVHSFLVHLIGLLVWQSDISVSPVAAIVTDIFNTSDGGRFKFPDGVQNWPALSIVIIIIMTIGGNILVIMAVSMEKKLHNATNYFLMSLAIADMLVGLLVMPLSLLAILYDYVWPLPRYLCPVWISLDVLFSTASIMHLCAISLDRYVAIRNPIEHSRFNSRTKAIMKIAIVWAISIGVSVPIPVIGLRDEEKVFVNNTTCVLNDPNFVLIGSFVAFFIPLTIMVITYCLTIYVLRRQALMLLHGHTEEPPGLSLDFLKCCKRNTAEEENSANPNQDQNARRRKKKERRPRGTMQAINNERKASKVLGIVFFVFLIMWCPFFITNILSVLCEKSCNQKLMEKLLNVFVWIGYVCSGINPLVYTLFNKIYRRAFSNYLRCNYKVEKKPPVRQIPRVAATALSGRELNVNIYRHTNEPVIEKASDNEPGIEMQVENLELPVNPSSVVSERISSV

[17] = Metabolic stability in human liver microsomes assessed as compound remaining at 100 uM […] followed by NADPH addition by LC/MS analysis; format: ADME, Microsome; conditions: read-out: Stability
[18] = molecular target: Voltage-gated inwardly rectifying potassium channel KCNH2 (Homo sapiens, UniProt Q12809); assay: Inhibition of hERG potassium channel expressed in CHO cells at -80 mV holding potential by whole cell patch clamp assay; format: toxicity, cell-based
[19] = Metabolic stability in human liver microsomes assessed as intrinsic clearance at 100 uM preincubated for 10 mins followed by NADPH addition by LC/MS analysis; format: ADME, Microsome; conditions: read-out: CLH
[20] = Genotoxicity in Salmonella typhimurium TA98 in absence of rat liver S9 fraction by Ames test; format: toxicity; conditions: salmonella enterica subsp. enterica serovar typhimurium
[21] = Metabolic stability in Sprague-Dawley rat liver microsomes assessed as intrinsic clearance at 100 uM preincubated for 10 mins followed by NADPH addition by LC/MS analysis; format: ADME, Microsome; conditions: read-out: CLH
[22] = molecular target: Cytochrome P450 3A4 (Homo sapiens, UniProt P08684); assay: Inhibition of CYP3A4 (unknown origin); format: ADME
[23] = Metabolic stability in Sprague-Dawley rat liver microsomes assessed as compound remaining at 100 uM […] followed by NADPH addition by LC/MS analysis; format: ADME, Microsome; conditions: read-out: Stability
[24] = Genotoxicity in Salmonella typhimurium TA1535 in absence of rat liver S9 fraction by Ames test; format: toxicity; conditions: salmonella enterica subsp. enterica serovar typhimurium
[25] = Genotoxicity in Salmonella typhimurium TA102 in presence of rat liver S9 fraction by Ames test; format: toxicity, subcellular; conditions: salmonella enterica subsp. enterica serovar typhimurium
[26] = molecular target: T2, 5-hydroxytryptamine receptor 2A (Homo sapiens, UniProt P28223); assay: Inverse agonist activity at 5-HT2A receptor (unknown origin) expressed in mouse NIH3T3 cells using o-nitrophenyl-D-galacto pyranoside incubated for 120 hrs; format: functional, cell-based
[27] = Metabolic stability in dog liver microsomes assessed as compound remaining at 100 uM […] followed by NADPH addition by LC/MS analysis; format: ADME, Canis lupus familiaris, Microsome; conditions: read-out: Stability
[28] = Genotoxicity in Salmonella typhimurium TA97 in presence of rat liver S9 fraction by Ames test; format: toxicity, subcellular; conditions: salmonella enterica subsp. enterica serovar typhimurium
[29] = Genotoxicity in Salmonella typhimurium TA98 in presence of rat liver S9 fraction by Ames test; format: toxicity, subcellular; conditions: salmonella enterica subsp. enterica serovar typhimurium
[30] = molecular target: T2, 5-hydroxytryptamine receptor 2A; assay: Displacement of [3H]-Ketanserin from human 5-HT2A receptor at 50 nM incubated for 1 hr by microbeta scintillation counter analysis
[31] = Genotoxicity in Salmonella typhimurium TA100 in presence of rat liver S9 fraction by Ames test; format: toxicity, subcellular; conditions: salmonella enterica subsp. enterica serovar typhimurium
[32] = Plasma protein binding in monkey at 10 uM; format: ADME, cell-free, Macaca mulatta; conditions: rhesus monkey, read-out: PPB (converted)
[33] = Drug distribution in Sprague-Dawley rat brain at 6 micromol/kg administered via gavage measured after 0.5 hr by LC-MS/MS analysis; format: ADME, tissue-based; conditions: in vivo, po, dose 6 µmol/kg
[34] = Aqueous solubility of compound at pH 7.4; format: physicochemical
[35] = Metabolic stability in Sprague-Dawley rat liver microsomes assessed as half life at 100 uM preincubated for 10 mins followed by NADPH addition by LC/MS analysis; format: ADME, Microsome
[36] = Drug distribution in Sprague-Dawley rat brain at 6 micromol/kg administered via gavage measured after 2 hrs by LC-MS/MS analysis; format: ADME, tissue-based; conditions: in vivo, po, dose 6 µmol/kg
[37] = molecular target: T3, Cytochrome P450 1A2 (Homo sapiens, UniProt P05177); assay: Inhibition of CYP1A2 (unknown origin); format: ADME
T3 sequence (P05177 whole entry): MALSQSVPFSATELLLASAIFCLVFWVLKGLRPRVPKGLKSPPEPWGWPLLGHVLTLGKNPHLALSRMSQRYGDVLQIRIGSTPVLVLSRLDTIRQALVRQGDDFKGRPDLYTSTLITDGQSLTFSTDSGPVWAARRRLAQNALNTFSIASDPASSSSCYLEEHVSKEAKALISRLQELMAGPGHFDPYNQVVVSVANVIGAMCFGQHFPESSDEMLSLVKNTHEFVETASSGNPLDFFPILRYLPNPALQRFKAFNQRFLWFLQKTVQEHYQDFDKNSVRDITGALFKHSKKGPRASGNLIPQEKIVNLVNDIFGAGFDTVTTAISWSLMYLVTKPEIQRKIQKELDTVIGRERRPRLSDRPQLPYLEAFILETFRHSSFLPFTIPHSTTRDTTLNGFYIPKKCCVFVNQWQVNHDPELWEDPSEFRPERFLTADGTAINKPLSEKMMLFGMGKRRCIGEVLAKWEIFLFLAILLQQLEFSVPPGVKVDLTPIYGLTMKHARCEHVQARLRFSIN

[38] = molecular target: Cytochrome P450 2D6 (Homo sapiens, UniProt P10635); assay: Inhibition of CYP2D6 (unknown origin); format: ADME
Cytochrome P450 2D6, sequence (P10635 whole entry): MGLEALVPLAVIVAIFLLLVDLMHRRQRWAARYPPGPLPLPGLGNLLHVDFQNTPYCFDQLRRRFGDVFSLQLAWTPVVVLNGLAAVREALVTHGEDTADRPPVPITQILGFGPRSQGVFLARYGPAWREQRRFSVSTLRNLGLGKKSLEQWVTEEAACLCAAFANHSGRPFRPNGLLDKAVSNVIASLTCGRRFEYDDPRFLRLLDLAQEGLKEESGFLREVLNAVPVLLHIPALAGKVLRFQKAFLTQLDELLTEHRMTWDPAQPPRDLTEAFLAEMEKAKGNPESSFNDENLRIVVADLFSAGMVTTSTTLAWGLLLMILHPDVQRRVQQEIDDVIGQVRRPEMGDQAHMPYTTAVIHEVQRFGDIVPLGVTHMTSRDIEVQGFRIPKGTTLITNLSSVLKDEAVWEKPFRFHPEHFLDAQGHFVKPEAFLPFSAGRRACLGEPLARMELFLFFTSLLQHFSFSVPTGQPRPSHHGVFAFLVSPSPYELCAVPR

T2 sequence (P28223 whole entry): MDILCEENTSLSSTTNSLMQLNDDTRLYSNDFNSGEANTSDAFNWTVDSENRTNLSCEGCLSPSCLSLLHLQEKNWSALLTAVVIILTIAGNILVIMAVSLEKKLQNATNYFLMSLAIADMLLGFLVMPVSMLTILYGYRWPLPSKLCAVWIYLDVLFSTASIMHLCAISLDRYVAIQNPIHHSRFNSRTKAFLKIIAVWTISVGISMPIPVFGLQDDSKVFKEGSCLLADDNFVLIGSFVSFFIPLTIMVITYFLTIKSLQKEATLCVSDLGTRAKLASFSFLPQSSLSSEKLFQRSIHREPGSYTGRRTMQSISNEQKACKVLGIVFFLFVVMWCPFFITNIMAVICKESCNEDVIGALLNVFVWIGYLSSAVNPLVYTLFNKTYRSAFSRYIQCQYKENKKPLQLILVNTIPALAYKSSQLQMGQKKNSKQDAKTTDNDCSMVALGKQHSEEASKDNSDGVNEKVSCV
Voltage-gated inwardly rectifying potassium channel KCNH2, sequence (Q12809 whole entry): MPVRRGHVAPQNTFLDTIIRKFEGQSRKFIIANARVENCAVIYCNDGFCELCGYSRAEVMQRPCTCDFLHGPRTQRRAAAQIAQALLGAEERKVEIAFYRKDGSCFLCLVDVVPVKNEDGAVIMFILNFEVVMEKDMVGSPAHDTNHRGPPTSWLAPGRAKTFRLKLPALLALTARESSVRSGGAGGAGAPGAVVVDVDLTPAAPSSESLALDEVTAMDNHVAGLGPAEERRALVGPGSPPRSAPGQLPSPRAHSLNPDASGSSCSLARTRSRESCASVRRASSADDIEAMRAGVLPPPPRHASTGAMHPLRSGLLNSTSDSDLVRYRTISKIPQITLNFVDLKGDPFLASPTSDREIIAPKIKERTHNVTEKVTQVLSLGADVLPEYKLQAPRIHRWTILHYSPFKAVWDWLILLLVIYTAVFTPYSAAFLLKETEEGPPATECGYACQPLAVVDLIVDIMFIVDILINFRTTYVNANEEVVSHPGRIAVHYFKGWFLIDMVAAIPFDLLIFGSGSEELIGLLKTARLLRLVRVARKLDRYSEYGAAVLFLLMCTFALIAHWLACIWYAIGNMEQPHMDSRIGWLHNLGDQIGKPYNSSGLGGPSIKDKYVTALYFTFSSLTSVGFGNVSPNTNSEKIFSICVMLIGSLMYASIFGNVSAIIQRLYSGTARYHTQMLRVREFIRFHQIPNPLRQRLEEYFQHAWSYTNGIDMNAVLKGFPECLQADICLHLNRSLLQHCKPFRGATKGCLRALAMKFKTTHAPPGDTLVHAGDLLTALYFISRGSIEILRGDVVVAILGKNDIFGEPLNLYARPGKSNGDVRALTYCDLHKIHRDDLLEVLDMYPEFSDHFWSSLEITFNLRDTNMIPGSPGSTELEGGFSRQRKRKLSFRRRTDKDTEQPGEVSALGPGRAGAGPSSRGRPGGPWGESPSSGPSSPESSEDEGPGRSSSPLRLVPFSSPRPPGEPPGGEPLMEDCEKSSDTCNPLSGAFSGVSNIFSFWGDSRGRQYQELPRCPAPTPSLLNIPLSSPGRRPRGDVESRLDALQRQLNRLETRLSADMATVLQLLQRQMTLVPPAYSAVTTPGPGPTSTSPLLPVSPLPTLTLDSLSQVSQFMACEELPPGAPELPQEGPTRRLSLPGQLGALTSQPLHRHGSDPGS
Cytochrome P450 2C9, sequence (P11712 whole entry): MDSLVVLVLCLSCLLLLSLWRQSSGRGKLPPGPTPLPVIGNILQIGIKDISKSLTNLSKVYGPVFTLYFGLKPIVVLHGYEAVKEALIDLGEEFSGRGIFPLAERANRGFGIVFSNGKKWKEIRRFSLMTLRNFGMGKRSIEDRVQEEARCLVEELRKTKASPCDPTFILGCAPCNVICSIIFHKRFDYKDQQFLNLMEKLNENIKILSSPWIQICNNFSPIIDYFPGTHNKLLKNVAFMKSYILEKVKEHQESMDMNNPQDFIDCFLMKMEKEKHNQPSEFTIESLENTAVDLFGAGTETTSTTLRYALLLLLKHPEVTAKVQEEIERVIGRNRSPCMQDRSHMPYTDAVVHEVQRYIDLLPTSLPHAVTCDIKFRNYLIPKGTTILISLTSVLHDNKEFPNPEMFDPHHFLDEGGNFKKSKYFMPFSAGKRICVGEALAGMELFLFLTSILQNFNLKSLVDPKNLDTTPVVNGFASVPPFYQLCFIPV
5-hydroxytryptamine receptor 2B, sequence (P41595 whole entry): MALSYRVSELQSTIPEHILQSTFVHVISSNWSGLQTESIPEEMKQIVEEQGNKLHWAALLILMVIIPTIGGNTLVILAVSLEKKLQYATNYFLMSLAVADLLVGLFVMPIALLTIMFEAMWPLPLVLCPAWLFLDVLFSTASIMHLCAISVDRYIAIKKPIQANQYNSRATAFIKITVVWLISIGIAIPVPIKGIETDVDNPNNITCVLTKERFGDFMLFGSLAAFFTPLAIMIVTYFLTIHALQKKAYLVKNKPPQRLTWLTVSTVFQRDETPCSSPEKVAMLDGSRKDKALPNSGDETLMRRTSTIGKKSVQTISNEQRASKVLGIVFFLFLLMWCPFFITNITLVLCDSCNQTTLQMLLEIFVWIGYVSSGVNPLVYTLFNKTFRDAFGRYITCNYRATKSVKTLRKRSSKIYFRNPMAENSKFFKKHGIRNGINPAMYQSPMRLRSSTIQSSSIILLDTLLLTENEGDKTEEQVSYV
Cytochrome P450 3A4, sequence (P08684 whole entry): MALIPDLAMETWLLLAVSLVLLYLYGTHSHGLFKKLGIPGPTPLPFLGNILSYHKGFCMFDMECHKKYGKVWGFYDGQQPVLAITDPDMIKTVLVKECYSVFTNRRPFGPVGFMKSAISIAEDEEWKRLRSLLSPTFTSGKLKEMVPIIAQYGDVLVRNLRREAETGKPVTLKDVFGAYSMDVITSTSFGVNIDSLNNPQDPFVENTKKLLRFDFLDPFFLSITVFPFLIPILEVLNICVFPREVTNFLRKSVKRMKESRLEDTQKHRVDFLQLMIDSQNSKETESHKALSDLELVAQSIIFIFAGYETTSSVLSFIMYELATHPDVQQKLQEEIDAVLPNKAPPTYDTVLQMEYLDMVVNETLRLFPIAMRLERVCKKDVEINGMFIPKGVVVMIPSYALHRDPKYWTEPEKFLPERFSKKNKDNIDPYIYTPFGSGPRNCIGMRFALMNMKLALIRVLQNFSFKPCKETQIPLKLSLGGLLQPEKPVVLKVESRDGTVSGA
Cytochrome P450 2C19, sequence (P33261 whole entry): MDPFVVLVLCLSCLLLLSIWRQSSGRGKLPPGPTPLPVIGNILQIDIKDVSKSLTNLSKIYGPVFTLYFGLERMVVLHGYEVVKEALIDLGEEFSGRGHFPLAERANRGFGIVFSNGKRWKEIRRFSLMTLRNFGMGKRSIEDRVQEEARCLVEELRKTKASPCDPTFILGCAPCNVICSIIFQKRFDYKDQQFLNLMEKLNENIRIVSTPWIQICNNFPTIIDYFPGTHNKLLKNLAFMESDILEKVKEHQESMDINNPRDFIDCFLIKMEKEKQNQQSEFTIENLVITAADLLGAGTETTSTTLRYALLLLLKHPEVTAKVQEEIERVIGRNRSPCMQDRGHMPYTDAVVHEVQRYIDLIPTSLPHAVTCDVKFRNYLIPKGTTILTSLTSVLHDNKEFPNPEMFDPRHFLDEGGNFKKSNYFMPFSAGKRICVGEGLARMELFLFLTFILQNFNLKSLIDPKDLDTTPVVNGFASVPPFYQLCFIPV

With `CN1CCC(N(Cc2ccc(F)cn2)C(=O)NCc2ccc(OCC(F)(F)F)cc2)CC1` the logD [1] was 1.97, the pKa [2] was 8.51 and the Activity [3] was “Non-Toxic”. For the same compound, the Activity [4] was “Non-Toxic”, the fraction unbound at 10 µM [5] was 0.418 and the fraction unbound at 10 µM [6] was 0.309. The Activity [7] was “Non-Toxic”, the IC50 [8] was > 100 µM and the Activity [9] was “Non-Toxic”. The Ct [10] was 100 nmol/kg, the Activity [11] was “Non-Toxic” and the half-life at 100 µM [12] was > 3.1 h. The Activity [13] was “Non-Toxic”, the IC50 [14] was 62.9 µM and the Ki [15] was 0.139 µM. For the same compound, the Ki [16] was 0.002 µM, the remaining at 100 µM [17] was 89.2% and the IC50 [18] was 1.1 µM. For the same compound, the CLint scaled at 100 µM [19] was < 6.7 mL/min/kg, the Activity [20] was “Non-Toxic” and the CLint scaled at 100 µM [21] was 34.1 mL/min/kg. The IC50 [22] was > 100 µM, the remaining at 100 µM [23] was 66.5% and the Activity [24] was “Non-Toxic”. For the same compound, the Activity [25] was “Non-Toxic”, the IC50 [26] was 0.0021 µM and the remaining at 100 µM [27] was 76.4%. The Activity [28] was “Non-Toxic”, the Activity [29] was “Non-Toxic” and the Ki [30] was 0.0002 µM. For the same compound, the Activity [31] was “Non-Toxic”, the fraction unbound at 10 µM [32] was 0.383 and the Ct [33] was 120 nmol/kg. The solubility [34] was 710 µg/mL (≈ 1560 µM), the half-life at 100 µM [35] was 1.72 h and the Ct [36] was 164 nmol/kg. For the same compound, the IC50 [37] was 8.5 µM and the IC50 [38] was > 100 µM.
